Legend:
[1] = system: New Zealand white rabbits; test: Hematoxylin and eosin staining ex vivo of eyes after GFS; assay type: in vivo; details: for infiltration of inflammatory cells and scarring in the subconjunctival space: H&E, five days after surgery
Experimental: Five days after surgery, the subjects in Groups A-D were euthanized with Fatal-plus™ (Vortech Pharmaceutical, Dearborn, Mich.) following the manufacturer's instructions. The subject's eyes were enucleated with palpebral margins to keep the conjunctiva epithelium and the subconjunctival space intact. Enucleated eyes were fixed with 10% buffered formalin and 5 μm thick paraffin sections were prepared. The sections were stained with hematoxylin and eosin (H&E) for histological examination, and images were captured using an Olympus DX51 light microscope and DP controller (Olympus, Tokyo, Japan).

[2] = system: New Zealand white rabbits; test: Post surgery IOP in vivo; parameters: species or system New Zealand white rabbit; details: rabbit GFS, versus untreated eye
Experimental: IOP for the animals in groups A-D was measured with a TONO-PEN AVIA® (Reichert Ophthalmic Instruments, Depew, N.Y.) by gently touching the cornea of each subject after topical anesthesia was applied with 0.5% proparacaine. The IOP reading was omitted if its confidence interval was less than 95%. An average of three measurements was taken to deduce IOP.

[3] = system: subconjunctival tissue fibroblast outgrowth; test: Subconjunctival tissue fibroblast outgrowth assay ex vivo; assay type: cell-based, New Zealand white rabbit; details: for cell outgrowth length, explant from 180° control: 180° from the surgical site (180° control)
Experimental: Under an ophthalmic surgical microscope, subconjunctival tissues were dissected from the surgical site and 180 (6-o'clock position) from the surgical site (the 180° control). Each biopsy specimen (explant) was placed in a 25 cm^2 cell culture flask with complete media. […] The cell outgrowth, in mm, from the edge of each explant was observed, and the length of the outgrowth in 4 quadrants was measured.

[4] = system: cultured rabbit subconjunctival fibroblasts; test: Toxicity of ALK-5 inhibitors in vitro (cell count by hemocytometer); assay type: cell-based, New Zealand white rabbit; details: 10.0 of inhibitor pre-treated one hour, then 2 ng/ml TGF-β2 up to 48 hours
Experimental: Sample fibroblasts were obtained from New Zealand white rabbit eyes. The fibroblasts were derived from the subconjunctival tissues isolated from the eyes of the subjects. The cells were maintained in 25 cm^2 flask using 2 ml of medium composed of Eagle's minimal essential medium, 10% fetal bovine serum, 5% calf serum, essential and nonessential aminoacids, and antibiotics. When the cells reached confluence, they were trypsinized and passaged.
Three samples of the fibroblasts were prepared. The first sample, sample A, included fibroblast cultures treated with 2 ng/ml of TGF-β2 for up to 48 hours. The second sample, sample B, included fibroblast cultures that were untreated. The third sample included fibroblast cultures pre-treated with 2 ml of a medium including […] of ALK-5 inhibitor SB-505124 for one hour, and were additionally treated with additional 2 ng/ml of TGF-β2 (R&D Systems, Minneapolis, Minn.) for up to 48 hours.
The number of cells were counted using a hemocytometer (Hausser Scientific, Horsham, PC) after trypsinization. […] Therefore, in addition to inhibiting the expression of TGF-β2 and mitigating the ocular scarring that may result after GFS by using an ALK-5 type inhibitor, the ALK-5 inhibitor appears to have the added benefit of not destroying healthy cells around the surgical site that prevent post-surgery infection.

[5] = explants taken five days after GFS

## CO[C@@]12[C@H](COC(N)=O)C3=C(C(=O)C(C)=C(N)C3=O)N1C[C@@H]1N[C@@H]12 [MMC, mitomycin C]
[1]
  infiltration of inflammatory cells and scarring in the subconjunctival space: only a few inflammatory cells and mild scarring
[2]; MMC control
  period IOP of treated eyes was lowered after GFS (in words): throughout the observation period
[3]; over 18 days
  cell outgrowth length, explant from 180° control: approximately 7 mm

## Cc1cccc(-c2[nH]c(C(C)(C)C)nc2-c2ccc3c(c2)OCO3)n1 [SB-505124]
[4]
  cell number versus samples untreated or treated with TGF-β2 alone: no measurable difference in cell number
[1]
  infiltration of inflammatory cells and scarring in the subconjunctival space: only a few inflammatory cells and mild scarring
[1]; rabbit, in vivo
  signs of tissue toxicity: no or very low signs of tissue toxicity
  subconjunctival blood vessels: seen
[2]; SB-505124 tablet
  time IOP of treated eyes was lowered after GFS: up to 10 days
[3]; over 18 days
  cell outgrowth length, explant from 180° control: approximately 7 mm
[3]; [5]
  cell outgrowth from the edge of the subconjunctival tissue explant (qualitative): robust
  difference in cell outgrowth versus untreated group: no significant difference
[3]; surgical site, over 18 days
  cell outgrowth length, explant from surgical site: approximately 7 mm

Source: patent publication US20100267731A1, “USE OF TRANSFORMING GROWTH FACTOR-B RECEPTOR INHIBITORS TO SUPPRESS OCULAR SCARRING” (Summa Health Systems, LLC, priority 2009, published 2010)
